# Measurements reported in patent EP0254179A2, “Tetrahydrobenzothiazoloquinolines, their preparation and use” (BOEHRINGER INGELHEIM KG, priority 1986, dated 1988).
# Experiments:
# [1] = test system: präsynaptischer Dopaminrezeptoren; assay: Inhibition of exploratory activity (light-beam interruptions by groups of 5 mice); assay type: in vivo, Mäusen; settings: 10 mg/kg subcutaneous, measured 1 hour after injection over 5 minutes, versus saline controls
# From the text: (§1) Im Vergleich zu der bekannten racemischen Verbindung 6-Methyl-9-amino-5,6,6a,7-tetrahydro-4H-benzo[de]thiazolo[4,-5-g] chinolin wurden daher beispielsweise die Verbindungen ((-)-Enantiomere) • a= 9-Amino-5,6,6a,7-tetrahydro-4H-benzo[de]thiazolo[4,5-g] chinolin • b= 6-Ethyl-9-amino-5,6,6a,7-tetrahydro-4H-benzo[de]-thiazolo[4,5-g]chinolin. • c= 6-Propyl-9-amino-5,6,6a,7-tetrahydro-4H-benzo[de]-thiazolo[4,5-g]chinolin • d= 6-Methyl-9-benzylamino-5,6,6a,7-tetrahydro-4H-benzo[de]-thiazolo[4,5-g]chinolin • e= 6-Ethyl-9-methylamino-5,6,6a,7-tetrahydro-4H-benzo[de]-thiazolo[4,5-g]chinolin • f= 6-Ethyl-9-dimethylamino-5,6,6a,7-tetrahydro-4H-benzo[de]thiazolo[4,5-g]chinolin. hinsichtlich ihrer Beeinflussung präsynaptischer Dopaminrezeptoren untersucht, wobei zunächst die Wirkung auf die exploratorische Aktivität von Mäusen getestet und anschließend die Beeinflussung der Dopaminutilisation und der Dopaminsynthese an Ratten wie folgt bestimmt wurden:
# Die Aktititätsmessung erfolgte in Beobachtungskäfigen, die mit einer Infrarotlichtschranke versehen sind. Gemessen wird die Häufigkeit der Unterbrechung des Lichtstrahles durch eine Gruppe von 5 Mäusen innerhalb von 5 Minuten. Gruppen von jeweils 5 Tieren erhalten die zu untersuchende Substanz in einer Dosis von 10 mg/kg subkutan injiziert. 1 Stunde später werden die Tiere in die Beobachtungskäfige gebracht, wo sofort mit der Messung der exploratorischen Aktivität über 5 Minuten begonnen wird. Parallel bzw. alternierend zu Gruppen, die mit Testsubstanz behandelt wurden, werden kochsalzbehandelte Kontrollgruppen (o,9%ig; 0,1 ml/10 g Körpergewicht subkutan) untersucht.
# Alle diejenigen Substanzen wurden in die weitere Versuchsreihe aufgenommen, die als Vorbedingung eine Hemmung der exploratorischen Aktivität gegenüber den Kontrolltieren von >50% aufwiesen, wie es beispielsweise für die oben näher bezeichneten Verbindungen a,b,c,d,e, und f nachzuweisen war.
# [2] = test system: präsynaptischer Dopaminrezeptoren; assay: Determination of dopamine utilisation after AMPT treatment (whole-brain dopamine by HPLC with electrochemical detection); assay type: in vivo, Ratten; settings: rats; 10 mg/kg s.c. at 0 and 2 hours; AMPT 250 mg/kg intraperitoneal; brains taken at 4 hours
# From the text: as §1
# Die Dopaminutilisation wurde an Ratten gemessen. Bei Tieren, die mit α-Methylparatyrosin (AMPT) (250 mg/kg intraperitoneal) behandelt werden, fällt die Dopaminkonzentration im Gesamthirn mit fortschreitender Versuchsdauer ab. Durch Substanzen, die an Autorezeptoren wirken, kann der Dopaminabfall (im Vergleich zu mit Kochsalzlösung behandelten Kontrolltieren) vermindert werden.
# Die Testsubstanzen werden zum Zeitpunkt 0 und 2 Stunden des Experiments - soweit nicht anders angegeben - zur Erstellung einer Dosis-Wirkungskurve mit 0,01 bis 10 mg/kg s.c. appliziert. Zum Zeitpunkt 4 Stunden des Experiments werden die Tiere getötet und die Gehirne der Dopaminbestimmung mittels Hochdruckflüssigkeitchromatographie mit elektrochemischer Detektion zugeführt. Bestimmt wird die durch die Testsubstanz bewirkte prozentuelle Steigerung der Dopaminutilisation nach AMPT-Behandlung.
Compound,Hemmung der exploratorischen Aktivität gegenüber den Kontrolltieren [1] [%],Prozentuale Steigerung der Dopaminutilisation [2] [%]
"CCN1CCc2cccc3c2C1Cc1sc(NC)nc1-3 (stereo not drawn) [e, 6-Ethyl-9-methylamino-5,6,6a,7-tetrahydro-4H-benzo[de]thiazolo[4,5-g]chinolin]",> 50,–
"CCN1CCc2cccc3c2C1Cc1sc(N(C)C)nc1-3 (stereo not drawn) [f, 6-Ethyl-9-dimethylamino-5,6,6a,7-tetrahydro-4H-benzo[de]thiazolo[4,5-g]chinolin]",> 50,–
"CN1CCc2cccc3c2C1Cc1sc(NCc2ccccc2)nc1-3 (stereo not drawn) [d, 6-Methyl-9-benzylamino-5,6,6a,7-tetrahydro-4H-benzo[de]thiazolo[4,5-g]chinolin]",> 50,–
"Nc1nc2c(s1)CC1NCCc3cccc-2c31 (stereo not drawn) [a, 9-Amino-5,6,6a,7-tetrahydro-4H-benzo[de]thiazolo[4,5-g] chinolin]",> 50,–
"CCCN1CCc2cccc3c2C1Cc1sc(N)nc1-3 (stereo not drawn) [c, 6-Propyl-9-amino-5,6,6a,7-tetrahydro-4H-benzo[de]thiazolo[4,5-g]chinolin]",> 50,112
"CN1CCc2cccc3c2C1Cc1sc(N)nc1-3 (racemic) [Vergleich, 6-Methyl-9-amino-5,6,6a,7-tetrahydro-4H-benzo[de]thiazolo[4,5-g] chinolin, reference compound]",–,34
"CCN1CCc2cccc3c2C1Cc1sc(N)nc1-3 (stereo not drawn) [b, 6-Ethyl-9-amino-5,6,6a,7-tetrahydro-4H-benzo[de]thiazolo[4,5-g]chinolin]",> 50,64
